# Tests used:
# Assay type in all cases: cell-based
# E. coli DH5α = assay: Antibacterial activity: MIC and growth curve against E. coli DH5α in 96-well plate; conditions: minimal inhibitory concentration against E. coli DH5α; 96-well plate, 5×10^5 CFU/mL, 37° C., judged after 8 h
# Method in brief: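 MIC taken as lowest protein level with no bacterial growth, tracked by A600 every 30 min during 37 °C, 175 rpm culture. Two-fold protein series 50-12.5 μg/mL final, triplicate wells, against 5×10^5 CFU/mL of LB-washed mid-log cells.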
# E. coli BL21 = assay: MIC against Gram-negative bacteria: E. coli BL21
# Method in brief: (§1)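 MIC = lowest concentration of recombinant protein showing no growth. Test proteins: purified human-derived EGF domain proteins, two-fold dilution series, three wells per concentration; inoculum 5×10^5 CFU/mL in LB; incubation 37° C with shaking at 175 rpm.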
# Pseudomonas aeruginosa = assay: MIC against Gram-negative bacteria: Pseudomonas aeruginosa
# Method in brief: as §1
# Klebsiella pneumonia = assay: MIC against Gram-negative bacteria: Klebsiella pneumonia
# Method in brief: as §1
# Enterobacter cloacae = assay: MIC against Gram-negative bacteria: Enterobacter cloacae
# Method in brief: as §1
# Aeromonas hydrophila = assay: MIC against Gram-negative bacteria: Aeromonas hydrophila
# Method in brief: as §1
# Citrobacter diversus = assay: MIC against Gram-negative bacteria: Citrobacter diversus
# Method in brief: as §1
# Moraxella catarrhalis = assay: MIC against Gram-negative bacteria: Moraxella catarrhalis
# Method in brief: as §1
# Proteus mirabilis = assay: MIC against Gram-negative bacteria: Proteus mirabilis
# Method in brief: as §1
# Proteus vulgaris = assay: MIC against Gram-negative bacteria: Proteus vulgaris
# Method in brief: as §1
# Serratia marcescens = assay: MIC against Gram-negative bacteria: Serratia marcescens
# Method in brief: as §1
# [1] = 96-well plate, 5×10^5 CFU/mL, 37° C., 10 h
# [2] = E. coli BL21, 96-well plate, 5×10^5 CFU/mL, 37° C., 10 h
# [3] = Pseudomonas aeruginosa, 96-well plate, 5×10^5 CFU/mL, 37° C., 10 h
# [4] = Klebsiella pneumonia, 96-well plate, 5×10^5 CFU/mL, 37° C., 10 h
# [5] = Enterobacter cloacae, 96-well plate, 5×10^5 CFU/mL, 37° C., 10 h
# [6] = Aeromonas hydrophila, 96-well plate, 5×10^5 CFU/mL, 37° C., 10 h
# [7] = Citrobacter diversus, 96-well plate, 5×10^5 CFU/mL, 37° C., 10 h
# [8] = Moraxella catarrhalis, 96-well plate, 5×10^5 CFU/mL, 37° C., 10 h
# [9] = Proteus mirabilis, 96-well plate, 5×10^5 CFU/mL, 37° C., 10 h
# [10] = Proteus vulgaris, 96-well plate, 5×10^5 CFU/mL, 37° C., 10 h
# [11] = Serratia marcescens, 96-well plate, 5×10^5 CFU/mL, 37° C., 10 h
substance,measurement,setting,value
PRT594 (CACNNNIDVTDPESCSRVTGECLRCLHNTQGANCQLCKPGHYGSALNQTCRR; listed as Homo sapiens),MIC,E. coli DH5α,12.5 µg/mL
same,MIC E. coli BL21,E. coli BL21; [1],25 µg/mL
same,MIC P. aeruginosa,Pseudomonas aeruginosa; [1],50 µg/mL
same,MIC K. pneumonia,Klebsiella pneumonia; [1],12.5 µg/mL
same,MIC E. cloacae,Enterobacter cloacae; [1],50 µg/mL
same,MIC A. hydrophila,Aeromonas hydrophila; [1],12.5 µg/mL
same,MIC C. diversus,Citrobacter diversus; [1],50 µg/mL
same,MIC M. catarrhalis,Moraxella catarrhalis; [1],12.5 µg/mL
same,MIC P. mirabilis,Proteus mirabilis; [1],50 µg/mL
same,MIC P. vulgaris,Proteus vulgaris; [1],12.5 µg/mL
same,MIC S. marcescens,Serratia marcescens; [1],50 µg/mL
PRT1005 (LMDLCAQKPCPRNSHCLQTGPSFHCLCLQGWTGPLCN; listed as Homo sapiens),MIC,E. coli DH5α,50 µg/mL
same,MIC,"E. coli BL21; E. coli BL21, 10 h cultivation at 37° C.",12.5 µg/mL
same,MIC,"Pseudomonas aeruginosa; P. aeruginosa, 10 h cultivation at 37° C.",50 µg/mL
same,MIC,"Klebsiella pneumonia; K. pneumonia, 10 h cultivation at 37° C.",12.5 µg/mL
same,MIC,"Enterobacter cloacae; E. cloacae, 10 h cultivation at 37° C.",25 µg/mL
same,MIC,"Aeromonas hydrophila; A. hydrophila, 10 h cultivation at 37° C.",50 µg/mL
same,MIC,"Citrobacter diversus; C. diversus, 10 h cultivation at 37° C.",25 µg/mL
same,MIC,"Moraxella catarrhalis; M. catarrhalis, 10 h cultivation at 37° C.",12.5 µg/mL
same,MIC,"Proteus mirabilis; P. mirabilis, 10 h cultivation at 37° C.",25 µg/mL
same,MIC,"Proteus vulgaris; P. vulgaris, 10 h cultivation at 37° C.",50 µg/mL
same,MIC,"Serratia marcescens; S. marcescens, 10 h cultivation at 37° C.",25 µg/mL
PRT806 (FGFQCSQHCDCHNGGQCSPTTGACECEPGYKGPRCQ; listed as Homo sapiens),MIC,E. coli DH5α,12.5 µg/mL
same,MIC (μg/mL) E. coli BL21,"E. coli BL21; E. coli BL21, 10 h cultivation at 37° C., 5×10^5 CFU/mL",25 µg/mL
same,MIC (μg/mL) P. aeruginosa,"Pseudomonas aeruginosa; P. aeruginosa, 10 h cultivation at 37° C., 5×10^5 CFU/mL",12.5 µg/mL
same,MIC (μg/mL) K. pneumonia,"Klebsiella pneumonia; K. pneumonia, 10 h cultivation at 37° C., 5×10^5 CFU/mL",12.5 µg/mL
same,MIC (μg/mL) E. cloacae,"Enterobacter cloacae; E. cloacae, 10 h cultivation at 37° C., 5×10^5 CFU/mL",12.5 µg/mL
same,MIC (μg/mL) A. hydrophila,"Aeromonas hydrophila; A. hydrophila, 10 h cultivation at 37° C., 5×10^5 CFU/mL",12.5 µg/mL
same,MIC (μg/mL) C. diversus,"Citrobacter diversus; C. diversus, 10 h cultivation at 37° C., 5×10^5 CFU/mL",12.5 µg/mL
same,MIC (μg/mL) M. catarrhalis,"Moraxella catarrhalis; M. catarrhalis, 10 h cultivation at 37° C., 5×10^5 CFU/mL",25 µg/mL
same,MIC (μg/mL) P. mirabilis,"Proteus mirabilis; P. mirabilis, 10 h cultivation at 37° C., 5×10^5 CFU/mL",12.5 µg/mL
same,MIC (μg/mL) P. vulgaris,"Proteus vulgaris; P. vulgaris, 10 h cultivation at 37° C., 5×10^5 CFU/mL",25 µg/mL
same,MIC (μg/mL) S. marcescens,"Serratia marcescens; S. marcescens, 10 h cultivation at 37° C., 5×10^5 CFU/mL",25 µg/mL
PRT1231 (IGPSCLKFCSGRGQCTRHGCKCDPGFSGPACE; listed as Homo sapiens),MIC,E. coli DH5α,12.5 µg/mL
same,MIC against E. coli BL21,E. coli BL21; [2],25 µg/mL
same,MIC against P. aeruginosa,Pseudomonas aeruginosa; [3],50 µg/mL
same,MIC against K. pneumonia,Klebsiella pneumonia; [4],12.5 µg/mL
same,MIC against E. cloacae,Enterobacter cloacae; [5],50 µg/mL
same,MIC against A. hydrophila,Aeromonas hydrophila; [6],100 µg/mL
same,MIC against C. diversus,Citrobacter diversus; [7],50 µg/mL
same,MIC against M. catarrhalis,Moraxella catarrhalis; [8],12.5 µg/mL
same,MIC against P. mirabilis,Proteus mirabilis; [9],50 µg/mL
same,MIC against P. vulgaris,Proteus vulgaris; [10],12.5 µg/mL
same,MIC against S. marcescens,Serratia marcescens; [11],25 µg/mL
PRT1298 (PINTCIQNPCQHGGTCHLSDSHKDGFSCSCPLGFEGQRCE; listed as Homo sapiens),MIC,E. coli DH5α,12.5 µg/mL
same,MIC against E. coli BL21,E. coli BL21; [2],50 µg/mL
same,MIC against P. aeruginosa,Pseudomonas aeruginosa; [3],12.5 µg/mL
same,MIC against K. pneumonia,Klebsiella pneumonia; [4],50 µg/mL
same,MIC against E. cloacae,Enterobacter cloacae; [5],25 µg/mL
same,MIC against A. hydrophila,Aeromonas hydrophila; [6],12.5 µg/mL
same,MIC against C. diversus,Citrobacter diversus; [7],50 µg/mL
same,MIC against M. catarrhalis,Moraxella catarrhalis; [8],12.5 µg/mL
same,MIC against P. mirabilis,Proteus mirabilis; [9],50 µg/mL
same,MIC against P. vulgaris,Proteus vulgaris; [10],12.5 µg/mL
same,MIC against S. marcescens,Serratia marcescens; [11],25 µg/mL
PRT469 (NCSTTCFNGGTCFYPGKCICPPGLEGEQCE; listed as Homo sapiens),MIC,E. coli DH5α,12.5 µg/mL
same,MIC against E. coli BL21,E. coli BL21; [1],25 µg/mL
same,MIC against P. aeruginosa,Pseudomonas aeruginosa; [1],12.5 µg/mL
same,MIC against K. pneumonia,Klebsiella pneumonia; [1],25 µg/mL
same,MIC against E. cloacae,Enterobacter cloacae; [1],50 µg/mL
same,MIC against A. hydrophila,Aeromonas hydrophila; [1],25 µg/mL
same,MIC against C. diversus,Citrobacter diversus; [1],12.5 µg/mL
same,MIC against M. catarrhalis,Moraxella catarrhalis; [1],50 µg/mL
same,MIC against P. mirabilis,Proteus mirabilis; [1],12.5 µg/mL
same,MIC against P. vulgaris,Proteus vulgaris; [1],50 µg/mL
same,MIC against S. marcescens,Serratia marcescens; [1],12.5 µg/mL
PRT1278 (DIDECRLNNGGCDHICRNTVGSFECSCKKGYKLLINERNCQ; listed as Homo sapiens),MIC,E. coli DH5α,25 µg/mL
same,MIC against E. coli BL21,E. coli BL21; [2],12.5 µg/mL
same,MIC against P. aeruginosa,Pseudomonas aeruginosa; [3],12.5 µg/mL
same,MIC against K. pneumonia,Klebsiella pneumonia; [4],12.5 µg/mL
same,MIC against E. cloacae,Enterobacter cloacae; [5],12.5 µg/mL
same,MIC against A. hydrophila,Aeromonas hydrophila; [6],12.5 µg/mL
same,MIC against C. diversus,Citrobacter diversus; [7],12.5 µg/mL
same,MIC against M. catarrhalis,Moraxella catarrhalis; [8],12.5 µg/mL
same,MIC against P. mirabilis,Proteus mirabilis; [9],12.5 µg/mL
same,MIC against P. vulgaris,Proteus vulgaris; [10],12.5 µg/mL
same,MIC against S. marcescens,Serratia marcescens; [11],12.5 µg/mL

# — US9833497B2, “Human originated EGF domain proteins and use of the same” (CHENGDU SOURCEBIO LIMITED-LIABILITY COMPANY, priority 2013, dated 2017)
